Reference: patent US9193731B2, “Antimicrobial compounds and methods of making and using the same” (Melinta Therapeutics, Inc., priority 2009, dated 2015)

The molecules below were run on Escherichia coli strain ATCC25922 (assay: standard microdilution assay to determine minimum inhibitory concentrations (MICs)). Settings: Escherichia coli strain ATCC25922, microdilution.
Format: cell-based
Outline: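 E. coli strain ATCC25922 tested per CLSI microdilution methodology (about 100 microliters per well) to find minimum inhibitory concentrations. Activity scored categorically at a 16 micrograms/ml threshold.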

Compound	E. coli ATCC25922 MIC
N=C(N)NCCCNCc1ccc(-n2cc3cc(-c4ccc(S(=O)(=O)N(CCOc5ccc(F)cc5)C5CCOCC5)cc4)[nH]c3nc2=O)cc1 [Compound 880]	− (a “−” indicates that the compound has an MIC value greater than 16 micrograms/ml)
N=C(N)NCCCNCc1ccc(-n2cc3cc(-c4cc(CCCCN)cc(S(N)(=O)=O)c4)[nH]c3nc2=O)cc1 [Compound 2092a]	+ (a “+” indicates that the compound has an MIC value of 16 micrograms/ml or less)
CC1CN(S(=O)(=O)c2ccc(-c3cc4cn(-c5ccc(CNCCCN)cc5)c(=O)nc4[nH]3)cc2)CC(C)N1 (stereo not drawn) [Compound 853]	+ (a “+” indicates that the compound has an MIC value of 16 micrograms/ml or less)
N=C(N)NCCCNCc1ccc(-n2cc3cc(C4CCCN(Cc5cnc[nH]5)C4)[nH]c3nc2=O)cc1 (stereo not drawn) [Compound 2003a]	− (a “−” indicates that the compound has an MIC value greater than 16 micrograms/ml)
N=C(N)NCCCNCc1ccc(-n2cc3cc(-c4cc(Br)cc(CCCCN)c4)[nH]c3nc2=O)cc1 [Compound 2079a]	+ (a “+” indicates that the compound has an MIC value of 16 micrograms/ml or less)
N=C(N)NCCCNCc1ccc(-n2cc3cc(-c4cc(OCCCN)cc(N5CCNCC5)c4)[nH]c3nc2=O)cc1 [Compound 2010a]	+ (a “+” indicates that the compound has an MIC value of 16 micrograms/ml or less)
N=C(N)NCCCNCc1ccc(-n2cc3cc(-c4ccc(S(=O)(=O)N(CCCn5cnnc5)C5CCNCC5)cc4)[nH]c3nc2=O)cc1 [Compound 856]	+ (a “+” indicates that the compound has an MIC value of 16 micrograms/ml or less)
NCCCNCc1ccc(-n2cc3cc(-c4ccc(S(=O)(=O)N(CC5CCOCC5)C5CCCNC5)cc4)[nH]c3nc2=O)cc1 (stereo not drawn) [Compound 831]	+ (a “+” indicates that the compound has an MIC value of 16 micrograms/ml or less)
N=C(N)NCCCNCc1ccc(-n2cc3cc(C4CCN(CC(F)CN)C4)[nH]c3nc2=O)cc1 (stereo not drawn) [Compound 2000a]	+ (a “+” indicates that the compound has an MIC value of 16 micrograms/ml or less)
N=C(N)NC(=O)CCNCc1ccc(-n2cc3cc(-c4ccc(S(=O)(=O)NC5CCNCC5)cc4)[nH]c3nc2=O)cc1 [Compound 1173]	− (a “−” indicates that the compound has an MIC value greater than 16 micrograms/ml)
COCCOCCc1cc(OCC(F)CN)cc(-c2cc3cn(-c4ccc(CNCCCNC(=N)N)cc4)c(=O)nc3[nH]2)c1 (stereo not drawn) [Compound 2035a]	− (a “−” indicates that the compound has an MIC value greater than 16 micrograms/ml)
N=C(N)NCCCNCc1ccc(-n2cc3cc(-c4cccc(OCC(F)(F)CN)c4)[nH]c3nc2=O)cc1 [Compound 1404]	− (a “−” indicates that the compound has an MIC value greater than 16 micrograms/ml)
CNCc1ccc(-n2cc3cc(-c4ccc(S(=O)(=O)N(Cc5ccc(Cl)c(Cl)c5)C5CCNCC5)cc4)[nH]c3nc2=O)cc1 [Compound 933]	− (a “−” indicates that the compound has an MIC value greater than 16 micrograms/ml)
CC1CN(C(=O)c2ccc(-c3cn4cc(-c5ccc(CNCCCNC(=N)N)cc5)c(=O)nc4[nH]3)cc2)CCN1 (stereo not drawn) [Compound 822]	+ (a “+” indicates that the compound has an MIC value of 16 micrograms/ml or less)
CC(CN)CN1CCC(c2cc3cn(-c4ccc(CNCCCN)cc4)c(=O)nc3[nH]2)C1 (stereo not drawn) [Compound 2041a]	+ (a “+” indicates that the compound has an MIC value of 16 micrograms/ml or less)
CC(=O)NCCCS(=O)(=O)c1ccc(-c2cc3cn(-c4ccc(C(=O)NCCCNC(=N)N)cc4)c(=O)nc3[nH]2)cc1 [Compound 1274]	− (a “−” indicates that the compound has an MIC value greater than 16 micrograms/ml)
CN(Cc1cccc(F)c1)Cc1cc(-c2cc3cn(-c4ccc(CNCCCNC(=N)N)cc4)c(=O)nc3[nH]2)cc(N2CCNCC2)c1 [Compound 1049]	+ (a “+” indicates that the compound has an MIC value of 16 micrograms/ml or less)

Same assay, conditions: Escherichia coli, ATCC25922, Escherichia coli strain ATCC25922, microdilution; read-out: E. coli ATCC25922 MIC

Compound	MIC
N=C(N)NCCCN(CCCN)Cc1ccc(-n2cc3cc(-c4ccc(S(=O)(=O)NC5CN6CCC5CC6)cc4)[nH]c3nc2=O)cc1 (stereo not drawn) [Compound 219]	< 16 mg/L
NCCCN1CC=C(c2cn3cc[nH]c3nc2=O)CC1 [Compound 571]	> 16 mg/L
NCCCN(CCCN)Cc1ccc(-n2cc3cc(-c4ccc(C(=O)N(Cc5cc(F)cc(F)c5)C5CCNCC5)cc4)[nH]c3nc2=O)cc1 [Compound 225]	< 16 mg/L

Next, values leading:

MIC	Compound
> 16 mg/L	NCCCNCc1ccc(-n2cc3c(nc2=O)[nH]c2ccccc23)cc1 [Compound 335]
> 16 mg/L	CNCc1ccc(-n2cc3cc(-c4ccc(S(=O)(=O)N(CCCn5cccn5)C5CCNCC5)cc4)[nH]c3nc2=O)cc1 [Compound 1020]
< 16 mg/L	N=C(N)CCCOc1cccc(-c2cc3cn(-c4ccc(CNCCCN)cc4)c(=O)nc3[nH]2)c1 [Compound 1216]
> 16 mg/L	NCCCNCc1ccc(-c2cn3nc(-c4ccc(F)cc4)[nH]c3nc2=O)cc1 [Compound 662]
< 16 mg/L	CC(C)(C)c1ccc(-c2cc3cn(-c4ccc(CNCCCN)cc4)c(=O)nc3[nH]2)cc1 [Compound 634]
> 16 mg/L	N=C(N)NCCCCCn1cc2cc(-c3ccc(S(=O)(=O)NC4CCNCC4)cc3)oc2nc1=O [Compound 912]
< 16 mg/L	N=C(N)NCCCNCc1ccc(-n2cc3cc(C4CN(C(=N)N)CCO4)[nH]c3nc2=O)cc1 (stereo not drawn) [Compound 1335]
< 16 mg/L	NCCCNCc1ccc(-n2cc3cc(CCS(=O)(=O)NC4CCNCC4)[nH]c3nc2=O)cc1 [Compound 881]
> 16 mg/L	NCCOc1cccc(-c2cc3cn(-c4ccc(CN)cc4)c(=O)nc3[nH]2)c1 [Compound 1144]
> 16 mg/L	CC(C)NC(=O)CCc1cc2cn(-c3ccc(CNCCCN)cc3)c(=O)nc2[nH]1 [Compound 293]
> 16 mg/L	CC1CCCCN1CCCN(C1CCNCC1)S(=O)(=O)c1ccc(-c2cc3cn(-c4ccc(CN)cc4)c(=O)nc3[nH]2)cc1 (stereo not drawn) [Compound 1051]
> 16 mg/L	NCCCCN1CC(n2cc3c(nc2=O)[nH]c2ccccc23)C1 [Compound 590]
< 16 mg/L	CSCCN(C1CCNCC1)S(=O)(=O)c1ccc(-c2cc3cn(-c4ccc(CN(CCCN)CCCN)cc4)c(=O)nc3[nH]2)cc1 [Compound 232]
< 16 mg/L	NCCCNCc1ccc(-n2cc3cc(-c4ccc(S(=O)(=O)N(C5CCNCC5)C5CCOCC5)cc4)[nH]c3nc2=O)cc1 [Compound 726]
> 16 mg/L	N=C(N)CCCOc1cccc(-c2cc3cn(-c4ccc(CN)cc4)c(=O)nc3[nH]2)c1 [Compound 1150]
< 16 mg/L	N=C(N)NCCCNCc1ccc(-c2cn3cc(-c4ccc(S(=O)(=O)N5CCNCC5)cc4)[nH]c3nc2=O)cc1 [Compound 788]
> 16 mg/L	NCCCNCc1ccc(-c2cn3nc(C4CC4)[nH]c3nc2=O)cc1 [Compound 646]
> 16 mg/L	NCc1ccc(-n2cc3cc(-c4cccc(S(=O)(=O)N(CCCc5cn[nH]c5)C5CCNCC5)c4)[nH]c3nc2=O)cc1 [Compound 1225]
> 16 mg/L	Cn1cc2cc(-c3ccc(C(=O)NC4CCNCC4)cc3)[nH]c2nc1=O [Compound 581]
< 16 mg/L	N=C(N)NCCCNCc1ccc(-n2cc3cc(-c4cccc(OCCCN5CCNCC5)c4)[nH]c3nc2=O)cc1 [Compound 1162]
> 16 mg/L	N#CCCCOc1cccc(-c2cc3cn(-c4ccc(CNCCCNC(=N)N)cc4)c(=O)nc3[nH]2)c1 [Compound 1203]
< 16 mg/L	N=C(N)NCCCNCc1ccc(-n2cc3cc(C4CCCN(CCCF)C4)[nH]c3nc2=O)cc1 (stereo not drawn) [Compound 2017a]
